Here are results for 2 compounds from patent US10766898B2, “Therapeutic compound for pain and synthesis thereof” (priority 2015, dated 2020).

“And” between values parts separate entries of the source, which are not always exact repeats. Equal values may be shown once.

This assay deals with heat hypersensitivity of λ-carrageenan-injected right hind paws of mice. Kind of assay: λ-carrageenan-induced paw inflammation, heat hypersensitivity on hotplate (57° C.), time until first response. Conditions: for Response time at 3.5 h, avg: average of n=5 animals; for Response time at 3.5 h, avg / Response time at 3.5 h: 10 mg/kg ip 30 min before 1% λ-carrageenan, hotplate 57° C., 3.5 h after carrageenan; for Response time at 3.5 h: individual animal, 10 mg/kg; for average response time compared with pretreatment baseline response time: n=5 animals, 10 mg/kg ip, 3.5 h after λ-carrageenan. Type of assay: in vivo. On the procedure:
Intra plantar injection of 1% […] may be used to induce local inflammation to the paws of test subject mice. In general, local inflammation is expressed as paw swelling and increased sensitivity to heat stimuli. Therefore, the effect of a test item on changes in heat hypersensitivity can be assessed. Using the protocol set forth, the therapeutic effect of the compounds of Formula XVIII and XXII were evaluated.
Animals were dosed with a test compound at time zero (control where given vehicle only) at 10 mg/kg ip (test item was dissolved in a 20% […] solution). After 30 minutes the animals were slightly anesthetized with isoflurane, and 0.1 ml of a 1% λ-carrageenan suspension in Distilled Water was injected into the plantar side of the right hind paws of the mice. After 3.5 hours after the λ-carrageenan administration, the animals were placed on a hotplate apparatus maintained at 57° C., and the time until the first response was recorded.
(In general: In the carrageenan paw model, swelling and tenderness develop within hours.)

As to `O=C(O[C@H]1[C@@H]2[C@@H]3C[C@@H](C[C@H]1N3Cc1ccc3c(c1)OCO3)CN2C(=O)c1ccc(F)cn1)C1CC1` (relative stereo) [Compound of Formula XVIII, (2R*,3R*,3aS*,6S*,7aS*)-1-(benzo[d][1,3]dioxol-5-ylmethyl)-4-(5-fluoropicolinoyl)octahydro-1H-2,6-methanopyrrolo[3,2-b]pyridin-3-yl cyclopropanecarboxylate], the “Response time at 3.5 h, avg” value was determined as 14.6 s; the “Response time at 3.5 h” value is 16 sec (2×) and 14 sec and 12 sec and 15 sec; the “average response time compared with pretreatment baseline response time” value was “exceeded the pretreatment baseline response time”.
For `COCC(=O)N1C[C@@H]2C[C@@H]3C1[C@@H](O)[C@H](C2)N3Cc1cccc(C(N)=O)c1` (relative stereo) [Compound of Formula XXII, 3-(((2S*,3S*,6R*,7aR*)-3-hydroxy-4-(2-methoxyacetyl)octahydro-1H-2,6-methanopyrrolo[3,2-b]pyridin-1-yl)methyl)benzamide], the “Response time at 3.5 h, avg” value is 12.2 s; the “Response time at 3.5 h” value is 12 sec (2×) and 14 sec and 13 sec and 10 sec; the “average response time compared with pretreatment baseline response time” value is recorded as “exceeded the pretreatment baseline response time”.
